Measured values published in US12653788B2, “Pharmaceutical composition of a pyrazole compound dispersed in a polymer matrix” (Intervet Inc., priority 2019, dated 2026).

Tests used:
cIL-31 induced pruritus = details: with respect to placebo, similar magnitude to oclacitinib (Apoquel); cited from earlier work
[1] = In vitro anti-nucleating polymer screen in simulated gastric fluid (PION UV probe); format: physicochemical; details: only simulated gastric fluid (SGF) pH 1.8, no polymer; 2 hours, 272 nm
Method: FIG. 3—Several anti-nucleating polymers were assessed for ability to maintain the compound of Formula (I) in an in vitro screen.
In an attempt to improve the bioavailability of the compound of Formula (I) in animals administered in the fed state, anti-nucleating agents were added to the pharmaceutical composition to decrease the potential for crystallization of the compound. Several anti-nucleation polymers were assessed for ability to maintain the compound of Formula (I) in an in vitro screen. 0.5% solution of each anti-nucleating polymer was prepared in simulated gastric fluid, pH 1.8. 75 uL of 10 mg/mL API in DMSO was added into 5 mL of the 0.5% polymer solution and monitored by PION UV probe for 2 hours at 272 nm. […] When the other polymers were used, the concentration of the compound of Formula (I) was initially maintained but finally was reduced before the 2 hour test was completed.

[2] = Solubility of the compound (water, volatile solvents); format: physicochemical
Method: (§1) The poor water solubility results in poor oral bioavailability in dogs, often below 50%. The log P of the compound of Formula (I) is calculated to be 1.25 (Chem Draw and Insight for Excel). To increase solubilization and promote bioavailability, Applicants have dosed the compound in the amorphous state as part of an amorphous solid dispersion (ASD). […] Therefore, the ASD was manufactured by co-precipitation or cPAD (co-precipitated amorphous dispersion). In this process, the compound and a polymer were dissolved into a solvent. The compound-polymer solution was then rapidly precipitated in an anti-solvent under high shear in a rotor-stator homogenizer. and the compound-polymer amorphous solid dispersion was formed.

[3] = Oral bioavailability of the compound in dogs; details: dog, in vivo
Method: as §1

concentration of the compound of Formula (I) in control [1]: dropped almost immediately
solubility in volatile solvents ([2]; isopropanol, acetone, dichloromethane): low solubility
water solubility ([2]; water): poorly water soluble
bioavailability [3]: < 50%
Structure (SMILES): COc1cc(Nc2nn([C@H]3COCC[C@@H]3C#N)cc2C(N)=O)cc(F)n1 [compound of Formula (I), 1-[(3R,4S)-4-cyanotetrahydropyran-3-yl]-3-[(2-fluoro-6-methoxy-4-pyridyl)amino]pyrazole-4-carboxamide]
suppression of pruritus (cIL-31 induced pruritus): significantly suppressed pruritus
